For test [1], the target named is T1, EGFR T790M, L858R (amino acids 669-1011 Accession Number NP_005219.2) (Homo sapiens, UniProt P00533, L858R/T790M).
T1 construct: purchased Eurofins Discovery; host or cells: mammalian cells (HEK-293)
Briefly: KdELECT binding assay (Eurofins Discovery), EGFR T790M, L858R. The note with it: read-out: EGFR DM Kd. Summed up: (§1)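 Competition binding: WT kinase as T7 phage fusion from E. coli, T790M/L858R produced in HEK-293 and DNA-tagged, incubated 1 h at room temperature with immobilized ligand beads and compound (11-point 3-fold series, 0.9% DMSO). Bead-bound kinase eluted and quantified by qPCR to derive Kd.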

For the next test, the system named is HeLa cells. Description: Cellular growth inhibition assay (CellTiter-Glo), HeLa cells. It counts as cell-based. Conditions: Homo sapiens, 72 h, three days compound treatment, CellTiter-Glo 2.0, read-out: CTG HELA GI50. Summed up:
(§2)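 GI50 derived by four-parameter regression of luminescence (CellTiter-Glo 2.0) at Day 0 and Day 3, normalized to DMSO wells. Cells (HeLa, HEK293; 500/well, DMEM plus 10% FBS) were dosed with compound dilutions 24 h post-seeding and exposed for three days at 37 °C.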

Another test concerns the target T2, EGFR (Homo sapiens, UniProt P00533).
T2 construct: purchased
Description: KdELECT binding assay, EGFR. Summed up: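 Competition binding: DNA- or T7 phage-tagged EGFR was incubated 1 h at room temperature with immobilized ligand beads and an 11-point 3-fold compound series (0.9% DMSO final). Bead-bound kinase was eluted and quantified by qPCR to derive Kd.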

The test system of the next test is HEK293 cells. Description: Cellular growth inhibition assay (CellTiter-Glo), HEK293 cells. It counts as cell-based. The note with it: Homo sapiens, 72 h, three days compound treatment, CellTiter-Glo 2.0, read-out: CTG HEK293 GI50. The gist of the method:
as §2

For test [2], the target named is T3, EGFR WT (amino acids 669-1011, Accession Number NP_005219.2) (Homo sapiens, UniProt P00533).
T3 construct: purchased Eurofins Discovery; host or cells: bacteria (E. coli, BL21-derived, T7 phage)
Description: KdELECT binding assay (Eurofins Discovery), EGFR WT. The gist of the method:
as §1

T1 sequence (P00533 669-1011 T790M/L858R): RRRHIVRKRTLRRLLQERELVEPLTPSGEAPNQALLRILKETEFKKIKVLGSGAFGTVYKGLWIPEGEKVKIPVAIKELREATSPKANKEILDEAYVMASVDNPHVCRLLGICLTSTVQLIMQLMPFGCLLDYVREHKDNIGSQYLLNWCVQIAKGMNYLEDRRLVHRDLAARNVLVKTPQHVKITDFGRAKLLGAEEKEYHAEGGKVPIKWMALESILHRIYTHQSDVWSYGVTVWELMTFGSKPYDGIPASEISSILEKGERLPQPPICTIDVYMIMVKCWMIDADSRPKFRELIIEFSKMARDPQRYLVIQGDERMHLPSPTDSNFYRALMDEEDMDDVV
T2 sequence (P00533 25-1210): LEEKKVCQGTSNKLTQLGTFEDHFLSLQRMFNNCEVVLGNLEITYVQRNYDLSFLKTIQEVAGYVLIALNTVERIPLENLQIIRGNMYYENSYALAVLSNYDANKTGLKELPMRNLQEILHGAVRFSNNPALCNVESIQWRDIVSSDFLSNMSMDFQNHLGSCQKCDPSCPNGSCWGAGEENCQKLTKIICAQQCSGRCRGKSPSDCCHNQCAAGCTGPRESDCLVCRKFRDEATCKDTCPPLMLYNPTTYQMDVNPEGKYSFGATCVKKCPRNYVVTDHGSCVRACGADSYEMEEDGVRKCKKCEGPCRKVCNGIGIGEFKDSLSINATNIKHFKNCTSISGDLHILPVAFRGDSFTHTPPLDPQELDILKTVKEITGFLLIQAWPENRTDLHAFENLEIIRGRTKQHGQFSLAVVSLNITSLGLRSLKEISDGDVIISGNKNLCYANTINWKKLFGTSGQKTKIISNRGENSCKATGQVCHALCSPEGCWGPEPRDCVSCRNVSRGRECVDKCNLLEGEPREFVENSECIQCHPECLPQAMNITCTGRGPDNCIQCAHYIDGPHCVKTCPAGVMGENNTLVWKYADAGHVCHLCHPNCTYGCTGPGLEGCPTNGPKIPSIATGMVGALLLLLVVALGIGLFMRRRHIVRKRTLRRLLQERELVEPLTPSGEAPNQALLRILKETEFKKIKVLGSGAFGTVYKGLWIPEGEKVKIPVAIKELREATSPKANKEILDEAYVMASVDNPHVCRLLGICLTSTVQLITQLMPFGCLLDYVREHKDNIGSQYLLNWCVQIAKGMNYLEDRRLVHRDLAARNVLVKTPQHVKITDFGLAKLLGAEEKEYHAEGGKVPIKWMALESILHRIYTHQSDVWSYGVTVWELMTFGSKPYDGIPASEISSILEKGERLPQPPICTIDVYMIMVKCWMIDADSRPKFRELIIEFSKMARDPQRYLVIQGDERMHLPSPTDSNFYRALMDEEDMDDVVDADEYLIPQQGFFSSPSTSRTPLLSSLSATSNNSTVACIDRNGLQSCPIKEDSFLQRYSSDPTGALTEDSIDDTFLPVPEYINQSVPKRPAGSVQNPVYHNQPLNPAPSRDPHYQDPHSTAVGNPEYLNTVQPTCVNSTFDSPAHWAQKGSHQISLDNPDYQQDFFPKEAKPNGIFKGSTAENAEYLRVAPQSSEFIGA
T3 sequence (P00533 669-1011): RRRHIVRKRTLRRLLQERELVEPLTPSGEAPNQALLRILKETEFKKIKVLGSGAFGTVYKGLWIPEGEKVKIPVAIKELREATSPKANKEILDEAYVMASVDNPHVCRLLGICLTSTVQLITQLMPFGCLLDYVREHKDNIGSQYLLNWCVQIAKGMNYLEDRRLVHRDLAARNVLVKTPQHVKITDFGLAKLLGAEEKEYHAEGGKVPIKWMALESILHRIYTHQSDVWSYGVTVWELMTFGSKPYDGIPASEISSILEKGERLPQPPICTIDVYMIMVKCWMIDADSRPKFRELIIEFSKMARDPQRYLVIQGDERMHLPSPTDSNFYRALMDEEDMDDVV

`C=CC(=O)Nc1cc(Nc2nccc(-c3cn(C)c4ccccc34)n2)c(OC)cc1N(C)CCN(C)CCOCCOCCOc1ccc(CNc2cc(N3CCCC[C@H]3CCO)nc3c(CC)cnn23)cn1` [Compound I-141, N-[2-[2-[2-[2-[2-[[5-[[[3-ethyl-5-[(2S)-2-(2-hydroxyethyl)-1-piperidyl]pyrazolo[1,5-a]pyrimidin-7-yl]amino]methyl]-2-pyridyl]oxy]ethoxy]ethoxy]ethyl-methyl-amino]ethyl-methyl-amino]-4-methoxy-5-[[4-(1-methylindol-3-yl)pyrimidin-2-yl]amino]phenyl]prop-2-enamide]: the Kd is below 50 nM in test [1], 50 to 500 nM at EGFR and 50 to 500 nM in test [2]. Moreover, the GI50 with HeLa cells and with HEK293 cells was below 500 nM throughout.
Regarding `C=CC(=O)Nc1cc(Nc2nccc(-c3cn(C)c4ccccc34)n2)c(OC)cc1N(C)CCN(C)CCCN1CCN(CCCOc2ccc(CNc3cc(N4CCCC[C@H]4CCO)nc4c(CC)cnn34)cn2)CC1` [Compound I-149, N-[2-[2-[3-[4-[3-[[5-[[[3-ethyl-5-[(2S)-2-(2-hydroxyethyl)-1-piperidyl]pyrazolo[1,5-a]pyrimidin-7-yl]amino]methyl]-2-pyridyl]oxy]propyl]piperazin-1-yl]propyl-methyl-amino]ethyl-methyl-amino]-4-methoxy-5-[[4-(1-methylindol-3-yl)pyrimidin-2-yl]amino]phenyl]prop-2-enamide], the Kd was below 50 nM in test [1], 500 to 2500 nM on EGFR and 500 to 2500 nM in test [2]. Besides, the 50% growth inhibitory concentration (GI50) in the test on HeLa cells and with HEK293 cells was below 500 nM each time.
For the compound `C=CC(=O)N[C@@H]1CN(c2nc(Nc3cn(CCCCNS(=O)(=O)c4ccc(Nc5ncc(Br)c(Nc6cccc(F)c6C(N)=O)n5)cc4)nc3OC)c3ncn(C)c3n2)CC1F` (stereo partly drawn) [Compound I-150, 2-[[5-bromo-2-[4-[4-[4-[[2-[(4R)-3-fluoro-4-(prop-2-enoylamino)pyrrolidin-1-yl]-9-methyl-purin-6-yl]amino]-3-methoxy-pyrazol-1-yl]butylsulfamoyl]anilino]pyrimidin-4-yl]amino]-6-fluoro-benzamide], the equilibrium dissociation constant (Kd) (in test [1]; on EGFR; in test [2]) was below 50 nM each time. Also, the GI50 in the test on HeLa cells is above 5000 nM; with HEK293 cells, 500 to 1500 nM.
Take `CC[C@@H]1C(=O)N(C)c2cnc(Nc3ccc(C(=O)NCCCN4CCN(CCCN(C)C/C=C/C(=O)N[C@@H]5CN(c6nc(Nc7cn(C)nc7OC)c7ncn(C)c7n6)C[C@H]5F)CC4)cc3OC)nc2N1C1CCCC1` [Compound I-152, 4-[[(7R)-8-cyclopentyl-7-ethyl-5-methyl-6-oxo-7H-pteridin-2-yl]amino]-N-[3-[4-[3-[[(E)-4-[[(3R,4R)-4-fluoro-1-1[6-1[(3-methoxy-1-methyl-pyrazol-4-yl)amino]-9-methyl-purin-2-yl]pyrrolidin-3-yl]amino]-4-oxo-but-2-enyl]-methyl-amino]propyl]piperazin-1-yl]propyl]-3-methoxy-benzamide]: the figures for the Kd (in test [1]; on EGFR; in test [2]) were below 50 nM, 500 to 2500 nM and 500 to 2500 nM, respectively. For the same compound, the values for the GI50 with HeLa cells and with HEK293 cells were below 500 nM and above 5000 nM, respectively.

(Values after US20250032623A1, “HETEROBIFUNCTIONAL COMPOUNDS AND THEIR USE IN TREATING DISEASE” (HALDA THERAPEUTICS OPCO, INC., priority 2021, published 2025).)
